In the supplement of paper PMC10307832:

Experiments:
Assay in all cases: relative viability (nuclei count vs DMSO), 5 days (fraction); higher = more cells survive
GW-2580 + Lapatinib = compound: COC1=CC=C(C=C1)COC2=C(C=C(C=C2)CC3=CN=C(N=C3N)N)OC [GW-2580] + CS(=O)(=O)CCNCc1ccc(-c2ccc3ncnc(Nc4ccc(OCc5cccc(F)c5)c(Cl)c4)c3c2)o1 [Lapatinib] (partner 2 µM)
How it was run: (§1)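 Cells from lung cancer lines were seeded into 1536-well plates and, one day later, dosed by pin tool. Treatments were either a single drug or a fixed dose of an anchor drug with five library-drug doses (not always all listed) in √10 steps. After 5 days, nuclei were stained in a one-step fixation (final 0.05% Triton X-100, 1% formaldehyde, 1 ug/ml Hoechst) and counted on 4× images, and relative viability is the treated-to-vehicle nuclei ratio, as the median of duplicate plates.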

Fedratinib + Olaparib = compound: Cc1cnc(Nc2ccc(OCCN3CCCC3)cc2)nc1Nc1cccc(S(=O)(=O)NC(C)(C)C)c1 [Fedratinib] + O=C(c1cc(Cc2n[nH]c(=O)c3ccccc23)ccc1F)N1CCN(C(=O)C2CC2)CC1 [Olaparib] (partner 8 µM)
How it was run: as §1

GW-2580 + Dasatinib = compound: COC1=CC=C(C=C1)COC2=C(C=C(C=C2)CC3=CN=C(N=C3N)N)OC [GW-2580] + Cc1nc(Nc2ncc(C(=O)Nc3c(C)cccc3Cl)s2)cc(N2CCN(CCO)CC2)n1 [Dasatinib] (partner 0.075 µM)
How it was run: as §1

Fedratinib + Navitoclax = compound: Cc1cnc(Nc2ccc(OCCN3CCCC3)cc2)nc1Nc1cccc(S(=O)(=O)NC(C)(C)C)c1 [Fedratinib] + CC1(C)CCC(c2ccc(Cl)cc2)=C(CN2CCN(c3ccc(C(=O)NS(=O)(=O)c4ccc(N[C@H](CCN5CCOCC5)CSc5ccccc5)c(S(=O)(=O)C(F)(F)F)c4)cc3)CC2)C1 [Navitoclax] (partner 0.5 µM)
How it was run: as §1

Fedratinib + Crizotinib = compound: Cc1cnc(Nc2ccc(OCCN3CCCC3)cc2)nc1Nc1cccc(S(=O)(=O)NC(C)(C)C)c1 [Fedratinib] + C[C@@H](Oc1cc(-c2cnn(C3CCNCC3)c2)cnc1N)c1c(Cl)ccc(F)c1Cl [Crizotinib] (partner 1 µM)
How it was run: as §1

Fedratinib + Decitabine = compound: Cc1cnc(Nc2ccc(OCCN3CCCC3)cc2)nc1Nc1cccc(S(=O)(=O)NC(C)(C)C)c1 [Fedratinib] + Nc1ncn([C@H]2C[C@H](O)[C@@H](CO)O2)c(=O)n1 [Decitabine] (partner 2 µM)
How it was run: as §1

| Cell Line | relative viability (GW-2580 + Lapatinib; first compound 0.08 µM) | relative viability (GW-2580 + Lapatinib; first compound 0.8 µM) | relative viability (GW-2580 + Lapatinib; first compound 2.53 µM) | relative viability (GW-2580 + Lapatinib; first compound 8 µM) | relative viability (Fedratinib + Olaparib; first compound 0.1 µM) | relative viability (Fedratinib + Olaparib; first compound 0.3162 µM) | relative viability (Fedratinib + Olaparib; first compound 1 µM) | relative viability (GW-2580 + Dasatinib; first compound 0.08 µM) | relative viability (GW-2580 + Dasatinib; first compound 0.8 µM) | relative viability (GW-2580 + Dasatinib; first compound 2.53 µM) | relative viability (GW-2580 + Dasatinib; first compound 8 µM) | relative viability (Fedratinib + Navitoclax; first compound 0.1 µM) | relative viability (Fedratinib + Navitoclax; first compound 0.3162 µM) | relative viability (Fedratinib + Navitoclax; first compound 1 µM) | relative viability (Fedratinib + Crizotinib; first compound 0.1 µM) | relative viability (Fedratinib + Crizotinib; first compound 0.3162 µM) | relative viability (Fedratinib + Crizotinib; first compound 1 µM) | relative viability (Fedratinib + Decitabine; first compound 0.1 µM) | relative viability (Fedratinib + Decitabine; first compound 0.3162 µM) | relative viability (Fedratinib + Decitabine; first compound 1 µM) |
| --- | --- | --- | --- | --- | --- | --- | --- | --- | --- | --- | --- | --- | --- | --- | --- | --- | --- | --- | --- | --- |
| NCI-H1355 | 1.08 | 1.2 | 0.817 | 1.01 | 0.771 | 0.817 | 0.699 | 0.831 | 0.779 | 0.468 | 0.649 | 0.796 | 0.973 | 0.949 | 1.06 | 1.04 | 1.07 | 0.344 | 0.353 | 0.356 |
| NCI-H1437 | 0.82 | 0.965 | 0.723 | 0.781 | 0.627 | 0.645 | 0.598 | 0.422 | 0.411 | 0.36 | 0.271 | 1.14 | 1.02 | 0.988 | 0.999 | 0.883 | 0.922 | 0.603 | 0.583 | 0.6 |
| NCI-H1650 | 0.822 | 0.895 | 0.677 | 0.781 | 0.835 | 0.726 | 0.674 | 0.339 | 0.399 | 0.326 | 0.296 | 1.25 | 1.12 | 1.15 | 0.706 | 0.926 | 0.888 | 0.454 | 0.349 | 0.399 |
| NCI-H1651 | 1.08 | 0.909 | 0.778 | 0.956 | 0.173 | 0.169 | 0.169 | 0.307 | 0.447 | 0.43 | 0.582 | 0.914 | 0.958 | 1.07 | 0.931 | 0.875 | 0.808 | 0.365 | 0.629 | 0.618 |
| NCI-H1666 | 0.601 | 0.757 | 0.847 | 0.431 | 0.792 | 0.751 | 0.747 | 0.874 | 0.901 | 0.758 | 0.755 | 0.877 | 0.96 | 0.946 | 1.03 | 0.994 | 0.843 | 0.638 | 0.746 | 0.7 |
| NCI-H1734 | 1.17 | 1 | 1.01 | 1.01 | 0.683 | 0.618 | 0.505 | 0.459 | 0.497 | 0.456 | 0.447 | 0.852 | 0.865 | 0.828 | 0.629 | 0.692 | 0.629 | 0.444 | 0.399 | 0.529 |
| NCI-H1755 | 1.12 | 1.28 | 0.94 | 0.96 | 0.898 | 0.861 | 0.855 | 0.488 | 0.553 | 0.388 | 0.396 | 1 | 0.972 | 0.894 | 0.858 | 0.862 | 0.802 | 0.662 | 0.723 | 0.664 |
| NCI-H1792 | 0.936 | 1.1 | 0.484 | 1.1 | 0.599 | 0.402 | 0.282 | 1.48 | 0.82 |  | 1.01 | 0.653 | 0.58 | 0.59 | 1.26 | 0.972 | 0.854 | 0.429 | 0.438 | 0.504 |
| NCI-H1915 | 1.13 | 1.05 | 1.04 | 1.03 | 0.262 | 0.227 | 0.222 | 0.356 | 0.295 | 0.272 | 0.273 | 0.747 | 0.726 | 0.761 | 0.942 | 0.866 | 0.777 | 0.266 | 0.258 | 0.247 |
| NCI-H1944 | 0.843 | 0.98 | 0.82 | 0.897 | 0.407 | 0.383 | 0.408 | 0.207 | 0.224 | 0.203 | 0.212 | 1.04 | 1.07 | 1.03 | 1.12 | 1.09 | 1.04 | 0.435 | 0.451 | 0.421 |
| NCI-H1975 | 0.925 | 1.09 | 0.885 | 0.834 | 0.814 | 0.841 | 0.613 | 0.406 | 0.388 | 0.379 | 0.315 | 1.08 | 1.01 | 0.953 | 0.802 | 0.928 | 0.663 | 0.372 | 0.315 | 0.343 |
| NCI-H1993 | 0.775 | 0.904 |  | 0.907 | 0.949 | 1.01 | 0.839 | 0.611 | 0.606 | 0.524 | 0.568 | 0.75 | 0.869 | 0.903 | 0.747 | 0.773 | 0.848 | 0.473 | 0.725 | 0.704 |
| NCI-H2009 | 0.966 | 0.894 | 0.91 | 0.857 | 0.692 | 0.694 | 0.649 | 0.319 | 0.305 | 0.299 | 0.27 | 1.13 | 1.19 | 1.1 | 1.04 | 0.977 | 0.884 | 0.368 | 0.406 | 0.356 |
| NCI-H2023 | 0.899 | 0.964 | 0.633 | 0.797 | 0.533 | 0.488 | 0.44 | 0.636 | 0.652 | 0.542 | 0.587 | 1.04 | 0.945 | 0.946 | 0.585 | 0.715 | 0.58 | 0.21 | 0.23 | 0.117 |
| NCI-H2085 | 0.849 | 0.988 | 0.626 | 0.713 | 0.73 | 0.824 | 0.765 | 0.277 | 0.217 | 0.25 | 0.258 | 1.01 | 1.01 | 0.883 | 0.769 | 0.953 | 0.812 | 0.53 | 0.563 | 0.518 |
